Data published in patent US10980727B2, “Mixtures containing (E)-3-benzo[1,3]dioxol-5-yl-N,N-diphenyl-2-propenamide” (SYMRISE AG, priority 2016, dated 2021).

How the values were obtained:
Format in all cases: physicochemical
[1] = Solubility of BDDPA in binary and ternary solvent systems at 23° C. and 90° C.
Description: The solubility of (E)-3-benzo[1,3]dioxol-5-yl-N,N-diphenyl-2-propenamide (BDDPA) in different solvent combinations was tested.
The amount of solvents 1 to 3 add up to 100 wt.-% with the amount of (E)-3-benzo[1,3]dioxol-5-yl-N,N-diphenyl-2-propenamide. Thus the composition of mixture 19 is 5 wt.-% BDDPA, 47.5 wt.-% triacetin and 47.5 wt.-% peppermint oil.

[2] = Stability of the mixtures on storage at 5° C.; settings: mixtures of table 2
Description: Several of the mixtures of example 1 were stored at night at 5 C to observe the stability.
(§1) The amount of solvent added to the amount of (E)-3-benzo[1,3]dioxol-5-yl-N,N-diphenyl-2-propenamide is added up to 100 wt.-% in each mixture (1 to 18). Thus the composition of mixture 1 is 99 wt.-% ethanol, 1 wt.-% BDDPA.

[3] = Solubility of BDDPA in different solvents at room temperature
Description: The solubility of (E)-3-benzo[1,3]dioxol-5-yl-N,N-diphenyl-2-propenamide (BDDPA) in different solvents was tested.
as §1

O=C(/C=C/c1ccc2c(c1)OCO2)N(c1ccccc1)c1ccccc1 [BDDPA, (E)-3-benzo[1,3]dioxol-5-yl-N,N-diphenyl-2-propenamide]
BDDPA dissolved in binary and ternary solvent combinations at room temperature ([1]; 23° C.): completely dissolved
BDDPA dissolved in binary and ternary solvent combinations at high temperature ([1]; 90° C.): remains stably dissolved
Recrystallization on storage over night below room temperature [2]: no recrystallization occurs
BDDPA dissolved in the respective solvents at room temperature ([3]; 23° C., solvents of table 1): completely dissolved
Temperature at which BDDPA dissolves in the solvents of table 1 ([3]; where necessary by means of ultrasonification): ≤ 65 °C
